# Data reported in US20240091324A1, “GASTROINTESTINAL HEALTH COMPOSITION” (priority 2019, published 2024).
# What was measured:
# Type in all cases: cell-based, human
# [1] = tested on: IL-8 release from Caco-2 monolayers; experiment: Release of IL-8 from polarised Caco-2 monolayers stimulated with LPS, TNF-α, IFN-β; settings: for % increase in anti-inflammatory activity compared to equivalent formulation without bromelain (difference of means): plus 80 ug/ml bromelain
# Method: Inflammatory model of Caco-2 polarised monolayer stimulated with inflammatory mediators LPS, TNF-α, IFN-β: Polarised Caco-2 models were generated as previously described. When cell cultures reached a baseline TER of >1000/cm^2, the monolayers were stimulated by addition of 0.6 ml containing 50 ng/ml IFN-β, 10 μg/ml LPS and 5 ng/ml TNFα to the basolateral compartment. Immediately after the addition of the stimulation cocktail 0.25 ml of GaRP±0-80 μg/ml bromelain was applied to the apical compartment. After the 24 h incubation culture supernatants from the apical side were collected for quantitation of IL-8.
# The human colorectal adenocarcinoma cell-line C2BBe1 was grown and maintained in Dulbecco's modified Eagle's medium (DMEM) supplemented with 10% v/v fetal bovine serum (FBS), 4 mM L-glutamine, 100 U/ml penicillin and […] streptomycin. All experiments were conducted on C2BBe1 cells within 12 passages after thawing.
# In an experiment to evaluate the anti-inflammatory effect of bromelain or various GaRP formulations, 0.25 ml of test samples was applied to the apical side for 24 h, at the same time 0.6 ml of a cocktail containing 50 ng/ml IFN+10 ug/ml LPS+5 ng/ml TNF was added to the basolateral side in this model. After the 24 h incubation culture supernatants from the apical side were collected and IL-8 quantitated by ELISA.
# [2] = tested on: Enterocyte; experiment: Observed therapeutic effective dose determined in the in vitro experiments (Table 4)
# Method: (§1) The observed therapeutic effective dose was determined in the in vitro experiments described herein.
# (§2) Table 4 summarises the observed therapeutic effective dose for each GaRP formulation component.
# [3] = tested on: Macrophage; experiment: as above
# Method: as §1, §2
# [4] = formulation or component plus 80 ug/ml bromelain, 24 h
# [5] = without bromelain, test sample apical 24 h, IFN+LPS+TNF cocktail basolateral
SMILES,"% inhibition of the release of IL-8 Median ± SEM [1, 4] [%]",% increase in anti-inflammatory activity compared to equivalent formulation without bromelain (difference of means) [1] [%],"% inhibition of the release of IL-8 Median ± SEM [1, 5] [%]","observed therapeutic effective dose, Target cell Enterocyte (pg/cell) [2] [pg/cell]","observed therapeutic effective dose, Target cell Macrophage (pg/cell) [3] [pg/cell]"
N=C(N)NCCC[C@H](N)C(=O)O [L-arginine],73 ± 8,67,6 ± 8,,
NC(=O)CC[C@H](N)C(=O)O [L-glutamine],83 ± 1,72,11 ± 7,,
CSCC[C@H](N)C(=O)O [L-methionine],73 ± 10,53,20 ± 5,,
C[C@@H](O)[C@H](N)C(=O)O [L-threonine],73 ± 11,55,18 ± 1,15,300
